Experimental data published in ChEMBL document CHEMBL5360649, “Potential Broad-Spectrum Antimicrobial, Wound Healing, and Disinfectant Cationic Peptide Crafted from Snake Venom” (J Med Chem, 2023).
The source made the active and inactive calls. The calls are words filed in the database; no cut-off is given here.

Key:
Lipopolysaccharide (LPS) [1] = test: Displacement of BODIPY-TR-cadaverin from Escherichia coli O111:B4 Lipopolysaccharide assessed as increase in binding factor at 10 to 40 uM preincubated for 15 mins followed by BODIPY-TR-cadaverin addition and measured after 15 mins by fluorescence based analysis; settings: dose 10-40 µM, time 30.0 min
Lipopolysaccharide (LPS) [2] = test: Induction of Escherichia coli O111:B4 Lipopolysaccharide aggregate degradation at 40 uM incubated for 4 hrs by ESI-LC/MS analysis
Pseudomonas aeruginosa [3] = test: Antibacterial activity against patient-derived Pseudomonas aeruginosa assessed as inhibition of bacterial growth at 25 to 100 uM incubated overnight by spotting assay; type: functional, organism-based; settings: dose 25-100 µM
[4] = Hemolytic activity in human RBC assessed as hemolysis at 25 uM incubated for 30 mins under shaking condition by multiplate reader analysis relative to control; type: toxicity, cell-based, Erythrocyte; settings: human red blood cells (RBC), read-out: Activity
[5] = Cytotoxicity against human WI-38 cells assessed as cell viability at 25 uM incubated for 24 hrs by MTT assay relative to control; type: toxicity, cell-based; settings: read-out: Activity
[6] = Cytotoxicity against human WI-38 cells assessed as cell viability at 12.5 uM incubated for 24 hrs by MTT assay relative to control; type: toxicity, cell-based; settings: read-out: Activity
[7] = Cytotoxicity against NMDF cells assessed as viable cells at 12.5 uM incubated for 24 hrs by MTT assay relative to control; type: toxicity, cell-based; settings: mouse, read-out: Activity
[8] = Cytotoxicity against mouse RAW264.7 cells assessed as cell viability at 12.5 uM incubated for 24 hrs by MTT assay relative to control; type: toxicity, cell-based; settings: read-out: Activity
[9] = Cytotoxicity against human A549 cells assessed as cell viability at 25 uM incubated for 24 hrs by MTT assay relative to control; type: toxicity, cell-based; settings: read-out: Activity
[10] = Cytotoxicity against human A549 cells assessed as cell viability at 12.5 uM incubated for 24 hrs by MTT assay relative to control; type: toxicity, cell-based; settings: read-out: Activity
U-937 = test: Immunomodulatory activity in human U-937 cells assessed as effect on TNF-alpha expression level at 5 to 10 uM incubated for 24 hrs by radioimmunoprecipitation based dot-plot analysis; type: functional, cell-based; settings: dose 5-10 µM
RAW264.7 = test: Antiinflammatory activity in LPS-induced mouse RAW264.7 cells assessed as increase in TGF-beta1 expression at 5 to 10 uM incubated for 24 hrs by radioimmunoprecipitation based dot-plot analysis; type: functional, cell-based; settings: dose 5-10 µM
Pseudomonas aeruginosa [11] = test: Antibacterial activity against Pseudomonas aeruginosa assessed as inhibition of bacterial growth incubated for 0.5 to 8.5 hrs by microtiter plate reader analysis; type: functional, organism-based; settings: dose 1.25-40 µM, time 0.5-8.5 hrs
Klebsiella pneumoniae [12] = test: Antibacterial activity against carbapenem resistance Klebsiella pneumoniae ATCC BAA-1705 assessed as inhibition of bacterial growth at 1.25 to 40 uM by microtiter plate reader analysis; type: functional, organism-based; settings: dose 1.25-40 µM, time 0.5-8.5 hrs, TDE = time-dependent effect
Staphylococcus aureus [13] = test: Induction of morphological changes in methicillin-resistant Staphylococcus aureus at MIC concentration incubated for 6 hrs by AFM analysis; type: functional, organism-based
Staphylococcus aureus [14] = test: Induction of morphological changes in methicillin-resistant Staphylococcus aureus at MIC concentration incubated for 6 hrs by SEM analysis; type: functional, organism-based
Pseudomonas aeruginosa [15] = test: Induction of morphological changes in Pseudomonas aeruginosa at MIC concentration incubated for 60 mins by SEM analysis; type: functional, organism-based
Klebsiella pneumoniae [16] = test: Induction of morphological changes in carbapenem resistant Klebsiella pneumoniae ATCC BAA-1705 at MIC concentration incubated for 60 mins by SEM analysis; type: functional, organism-based
Klebsiella pneumoniae [17] = test: Induction of morphological changes in carbapenem resistant Klebsiella pneumoniae ATCC BAA-1705 assessed as inhibition of cell division by measuring elongated cells at MIC concentration incubated for 60 mins by SEM analysis; type: functional, organism-based
Cell membrane [18] = test: Induction of outer membrane permeabilization in Escherichia coli at 0.5 to 1 times of MIC incubated for 5 to 20 mins by fluorescence based NPN uptake assay; type: subcellular; settings: time 5-20 min
Cell membrane [19] = test: Induction of outer membrane permeabilization in methicillin-resistant Staphylococcus aureus at 0.5 to 1 times of MIC incubated for 5 to 20 mins by fluorescence based NPN uptake assay; type: subcellular; settings: time 5-20 min
Cell membrane [20] = test: Induction of inner membrane permeabilization in Pseudomonas aeruginosa assessed as increase in fluorescence at 0.5 to 1 times of MIC incubated for 60 mins by PI staining based fluorescence analysis; type: subcellular
Cell membrane [21] = test: Induction of inner membrane permeabilization in Klebsiella pneumoniae assessed as increase in fluorescence at 0.5 to 1 times of MIC incubated for 60 mins by PI staining based fluorescence analysis; type: subcellular
Pseudomonas aeruginosa [22] = test: Antibacterial activity against Pseudomonas aeruginosa assessed as induction of cellular damage at MIC concentration incubated for 30 mins by SYTO9/PI staining based fluorescence microscopic analysis; type: functional, organism-based
Escherichia coli [23] = test: Antibacterial activity against Escherichia coli assessed as cell division block by measuring bacterial filamentation at 0.5 to 1 times of MIC incubated for 30 mins by SYTO9/PI staining based fluorescence microscopic analysis; type: functional, organism-based
Pseudomonas aeruginosa [24] = test: Antibiofilm activity against Pseudomonas aeruginosa assessed as biofilm eradication at 1 times of MIC incubated for 24 hrs by CV staining based analysis relative to control; type: functional
Klebsiella pneumoniae [25] = test: Antibiofilm activity against Klebsiella pneumoniae assessed as eradication of preformed biofilm at 0.5 times of MIC incubated for 24 hrs by CV staining based analysis relative to control; type: functional
Klebsiella pneumoniae [26] = test: Antibiofilm activity against Klebsiella pneumoniae assessed as clearance of preformed biofilm at 0.5 times of MIC incubated for 24 hrs by CV staining based analysis relative to control; type: functional
Pseudomonas aeruginosa [27] = test: Antibiofilm activity against Pseudomonas aeruginosa in the presence of Na+; type: functional, organism-based
Staphylococcus aureus [28] = test: Antibiofilm activity against methicillin-resistant Staphylococcus aureus assessed as increase in dead cell proportion at MIC incubated overnight by SYTO9/PI staining based fluorescence analysis; type: functional, organism-based
Staphylococcus aureus [29] = test: Antibiofilm activity against methicillin-resistant Staphylococcus aureus assessed as increase in dead cell proportion at 0.5 times of MIC incubated overnight by SYTO9/PI staining based fluorescence analysis; type: functional, organism-based
Staphylococcus aureus [30] = test: Antibiofilm activity against preformed biofilm in methicillin-resistant Staphylococcus aureus assessed as decrease in metabolic activity at MIC incubated overnight by MTT assay; type: functional, organism-based
Staphylococcus aureus [31] = test: Antibiofilm activity against preformed biofilm in methicillin-resistant Staphylococcus aureus assessed as decrease in cell viability at MIC incubated overnight by MTT assay relative to control; type: functional
Staphylococcus aureus [32] = test: Antibiofilm activity against preformed biofilm in methicillin-resistant Staphylococcus aureus assessed as decrease in cell viability at 0.5 times of MIC incubated overnight by MTT assay relative to control; type: functional
Rattus norvegicus [33] = species: Rattus norvegicus; test: Induction of wound healing in surgically-induced Albino Wistar rat wound model assessed as proper formation of hair follicles at 10 uM measured after 11 days by H&E staining based analysis; type: functional; settings: time 11.0 day
Rattus norvegicus [34] = species: Rattus norvegicus; test: Induction of wound healing in surgically-induced Albino Wistar rat wound model inoculated with methicillin-resistant Staphylococcus aureus assessed as reduction in inflammatory signs at 10 uM measured after 11 days by H&E staining based analysis; type: functional; settings: time 11.0 day
Escherichia coli [35] = test: Induction of resistance development in Escherichia coli assessed as change in MIC at 0.5 times of MIC incubated with compound for 12 hrs followed by replacement with fresh medium for 12 hrs and measured after 20 repeated cycles; type: functional, organism-based; settings: time 240.0 hrs

Q: What does the source list for H-FLPIIKWVKKFFWRWR-OH?
A: Activity (Lipopolysaccharide (LPS) [1]): Active; Activity (Lipopolysaccharide (LPS) [2]): Active; Activity (Pseudomonas aeruginosa [3]): Active; hemolysis at 0.5 h, 25 µM [4]: 20.4%; viability at 24 h, 25 µM [5]: 88.3%; viability at 24 h, 12.5 µM [6]: 91.5%; viability at 24 h, 12.5 µM [7]: > 85%; viability at 24 h, 12.5 µM [8]: > 90%; viability at 24 h, 25 µM [9]: 55.4%; viability at 24 h, 12.5 µM [10]: 74.3%; Activity (U-937): Active; Activity (RAW264.7): Active; Activity (Pseudomonas aeruginosa [11]): Dose-Dependent Effect; Activity (Klebsiella pneumoniae [12]): Tde; Activity (Staphylococcus aureus [13]): Active; Activity (Staphylococcus aureus [14]): Active; Activity (Pseudomonas aeruginosa [15]): Active; Activity (Klebsiella pneumoniae [16]): Active; Activity (Klebsiella pneumoniae [17]): Active; Activity (Cell membrane [18]): Active; Activity (Cell membrane [19]): Active; Activity (Cell membrane [20]): Active; Activity (Cell membrane [21]): Active; Activity (Pseudomonas aeruginosa [22]): Active; Activity (Escherichia coli [23]): Active; Activity (Pseudomonas aeruginosa [24]): <=72.73%; Activity (Klebsiella pneumoniae [25]): ~56%; Activity (Klebsiella pneumoniae [26]): ~52%; Activity (Pseudomonas aeruginosa [27]): Active; Activity (Staphylococcus aureus [28]): Active; Activity (Staphylococcus aureus [29]): inactive; Activity (Staphylococcus aureus [30]): Active; Activity (Staphylococcus aureus [31]): 33.89%; Activity (Staphylococcus aureus [32]): 62.7%; Activity (Rattus norvegicus [33]): Active; Activity (Rattus norvegicus [34]): Active; Activity (Escherichia coli [35]): inactive
